Measured values taken from US12357636B2 (Urovant Sciences GmbH, priority 2018, dated 2025).

Test system: patients with OAB
Experiment: Phase 2b study: cardiovascular safety, orthostatic AEs, blood pressure and heart rate changes (Table 17)
Assay type: in vivo, human
Conditions: for DBP Change from Baseline [≥] 5 mm Hg, n/N (%) / DBP Change from Baseline [≥] 10 mm Hg, n/N (%) / DBP Change from Baseline ≥15 mm Hg, n/N (%) / HR Change from Baseline [≥] 10 bpm, n/N (%) / HR Change from Baseline ≥5 bpm, n/N (%) / HR Change from Baseline ≥15 bpm, n/N (%) / SBP Change from Baseline [≥] 5 mm Hg, n/N (%) / SBP Change from Baseline [≥] 10 mm Hg, n/N (%) / SBP Change from Baseline ≥15 mm Hg, n/N (%): counts based on 3 consecutive post-baseline visits; for DBP Change from Baseline, Mean (95% CI) Max / HR Change from Baseline, Mean (95% CI) Maximum / SBP Change from Baseline, Mean (95% CI) Maximum: mean maximum from week 1 to 8
Description: None led to discontinuation. The overall incidence of orthostatic symptoms was low.
Small differences in the percent of subjects exceeding categorical heart rate and blood pressure thresholds for vibegron were similar to those in the tolterodine arm.

## O=C(Nc1ccc(C[C@@H]2CC[C@H]([C@H](O)c3ccccc3)N2)cc1)[C@@H]1CCc2nccc(=O)n21 [Vibegron, (6S)—N-[4-[[(2S,5R)-5-[(R)-hydroxy(phenyl)methyl]pyrrolidin-2-yl]methyl]phenyl]-4-oxo-7,8-dihydro-6H-pyrrolo[1,2-a]pyrimidine-6-carboxamide]
50 mg and 100 mg
  SBP and DBP mean changes at Week 1 and mean maximum changes over 8 weeks, difference between placebo and vibegron: < 1 mm Hg
100 mg
  subjects with a change from baseline in DBP>15 mmHg: 1.3%
In vivo
  HR mean maximum changes over 8 weeks, compared to placebo: < 2 bpm
Vibegron 3 mg
  DBP Change from Baseline [≥] 5 mm Hg, n/N (%): 14/140 (10.0) %
  DBP Change from Baseline [≥] 10 mm Hg, n/N (%): 3/140 (2.1) %
  DBP Change from Baseline ≥15 mm Hg, n/N (%): 1/140 (0.7) %
  HR Change from Baseline [≥] 10 bpm, n/N (%): 5/140 (3.6) %
  HR Change from Baseline ≥5 bpm, n/N (%): 16/140 (11.4) %
  HR Change from Baseline ≥15 bpm, n/N (%): 1/140 (0.7) %
  SBP Change from Baseline [≥] 5 mm Hg, n/N (%): 21/140 (15.0) %
  SBP Change from Baseline [≥] 10 mm Hg, n/N (%): 10/140 (7.1) %
  SBP Change from Baseline ≥15 mm Hg, n/N (%): 4/140 (2.9) %
  DBP Change from Baseline, Mean (95% CI) Max: 5.03 (3.92, 6.15) mm Hg
  HR Change from Baseline, Mean (95% CI) Maximum: 5.57 (4.25, 6.90) bpm
  SBP Change from Baseline, Mean (95% CI) Maximum: 7.14 (5.18, 9.10) mm Hg
  DBP Change from Baseline, Mean (95% CI) (week 1): −0.37 (−1.69, 0.95) mm Hg
  HR Change from Baseline, Mean (95% CI) (week 1): 0.36 (−0.90, 1.62) bpm
  SBP Change from Baseline, Mean (95% CI) (week 1): −0.35 (−2.34, 1.65) mm Hg
Vibegron 15 mg group
  subjects with orthostatic related AEs: 0.3%
Vibegron 15 mg
  DBP Change from Baseline [≥] 5 mm Hg, n/N (%): 15/132 (11.4) %
  DBP Change from Baseline [≥] 10 mm Hg, n/N (%): 3/132 (2.3) %
  DBP Change from Baseline ≥15 mm Hg, n/N (%): 1/132 (0.8) %
  HR Change from Baseline [≥] 10 bpm, n/N (%): 4/132 (3.0) %
  HR Change from Baseline ≥5 bpm, n/N (%): 17/132 (12.9) %
  HR Change from Baseline ≥15 bpm, n/N (%): 1/132 (0.8) %
  SBP Change from Baseline [≥] 5 mm Hg, n/N (%): 22/132 (16.7) %
  SBP Change from Baseline [≥] 10 mm Hg, n/N (%): 9/132 (6.8) %
  SBP Change from Baseline ≥15 mm Hg, n/N (%): 1/132 (0.8) %
  DBP Change from Baseline, Mean (95% CI) Max: 6.37 (5.20, 7.53) mm Hg
  HR Change from Baseline, Mean (95% CI) Maximum: 6.56 (5.20, 7.92) bpm
  SBP Change from Baseline, Mean (95% CI) Maximum: 8.93 (7.18, 10.67) mm Hg
  DBP Change from Baseline, Mean (95% CI) (week 1): 0.03 (−1.52, 1.59) mm Hg
  HR Change from Baseline, Mean (95% CI) (week 1): 0.35 (−1.15, 1.85) bpm
  SBP Change from Baseline, Mean (95% CI) (week 1): −0.34 (−2.46, 1.78) mm Hg
Vibegron 50 mg
  DBP Change from Baseline [≥] 5 mm Hg, n/N (%): 11/144 (7.6) %
  DBP Change from Baseline [≥] 10 mm Hg, n/N (%): 5/144 (3.5) %
  DBP Change from Baseline ≥15 mm Hg, n/N (%): 1/144 (0.7) %
  HR Change from Baseline [≥] 10 bpm, n/N (%): 4/144 (2.8) %
  HR Change from Baseline ≥5 bpm, n/N (%): 12/144 (8.3) %
  HR Change from Baseline ≥15 bpm, n/N (%): 1/144 (0.7) %
  SBP Change from Baseline [≥] 5 mm Hg, n/N (%): 24/144 (16.7) %
  SBP Change from Baseline [≥] 10 mm Hg, n/N (%): 14/144 (9.7) %
  SBP Change from Baseline ≥15 mm Hg, n/N (%): 3/144 (2.1) %
  DBP Change from Baseline, Mean (95% CI) Max: 4.19 (3.10, 5.29) mm Hg
  HR Change from Baseline, Mean (95% CI) Maximum: 5.49 (4.28, 6.69) bpm
  SBP Change from Baseline, Mean (95% CI) Maximum: 7.01 (5.31, 8.70) mm Hg
  DBP Change from Baseline, Mean (95% CI) (week 1): −0.70 (−2.07, 0.67) mm Hg
  HR Change from Baseline, Mean (95% CI) (week 1): 0.29 (−0.88, 1.46) bpm
  SBP Change from Baseline, Mean (95% CI) (week 1): −0.79 (−2.65, 1.08) mm Hg
Vibegron 100 mg group
  subjects with orthostatic related AEs: 1.1%
Vibegron 100 mg
  DBP Change from Baseline [≥] 5 mm Hg, n/N (%): 31/237 (13.1) %
  DBP Change from Baseline [≥] 10 mm Hg, n/N (%): 8/237 (3.4) %
  DBP Change from Baseline ≥15 mm Hg, n/N (%): 3/237 (1.3) %
  HR Change from Baseline [≥] 10 bpm, n/N (%): 7/237 (3.0) %
  HR Change from Baseline ≥5 bpm, n/N (%): 28/237 (11.8) %
  HR Change from Baseline ≥15 bpm, n/N (%): 1/237 (0.4) %
  SBP Change from Baseline [≥] 5 mm Hg, n/N (%): 28/237 (11.8) %
  SBP Change from Baseline [≥] 10 mm Hg, n/N (%): 10/237 (4.2) %
  SBP Change from Baseline ≥15 mm Hg, n/N (%): 3/237 (1.3) %
  DBP Change from Baseline, Mean (95% CI) Max: 4.80 (3.88, 5.72) mm Hg
  HR Change from Baseline, Mean (95% CI) Maximum: 6.12 (5.10, 7.15) bpm
  SBP Change from Baseline, Mean (95% CI) Maximum: 6.51 (5.09, 7.93) mm Hg
  DBP Change from Baseline, Mean (95% CI) (week 1): −0.69 (−1.72, 0.34) mm Hg
  HR Change from Baseline, Mean (95% CI) (week 1): 0.35 (−0.69, 1.38) bpm
  SBP Change from Baseline, Mean (95% CI) (week 1): −0.77 (−2.22, 0.68) mm Hg
